Experimental data: patent publication EP4603105A1, “PHARMACEUTICAL COMPOSITION CONTAINING CYCLIC COMPOUND HAVING SELECTIVE KRAS INHIBITORY EFFECT AGAINST HRAS AND NRAS” (CHUGAI SEIYAKU KABUSHIKI KAISHA, priority 2022, dated 2024)

Assays:
[1] = molecular target: GDP-bound KRAS wild-type protein (Homo sapiens, UniProt P01116); experiment: Binding to KRAS by surface plasmon resonance (SPR), dissociation constant KD; details: 1:1 binding model
Summary of the method: (§1)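 Captured GDP-RAS (~100–300 RU) was exposed to increasing compound concentrations, 75 s per step, in running buffer with 10 µM GDP, 10 mM MgCl2 and 4% DMSO at pH 7.4.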

[2] = molecular target: GDP-bound NRAS wild-type protein (Homo sapiens, UniProt P01111); experiment: Binding to NRAS by surface plasmon resonance (SPR), KD and KD ratio to KRAS; details: ratio of KD for GDP-bound NRAS wild-type protein to KD for KRAS
Sequence of GDP-bound NRAS wild-type protein (P01111 whole entry): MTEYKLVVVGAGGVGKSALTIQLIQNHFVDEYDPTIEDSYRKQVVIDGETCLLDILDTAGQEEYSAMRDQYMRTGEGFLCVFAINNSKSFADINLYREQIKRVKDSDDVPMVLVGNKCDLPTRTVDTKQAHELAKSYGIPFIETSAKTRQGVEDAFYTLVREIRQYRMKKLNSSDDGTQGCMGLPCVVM
Summary of the method: as §1

HRAS wild-type protein = HRAS wild-type protein (Homo sapiens, UniProt P01112); experiment: Binding to HRAS by surface plasmon resonance (SPR), KD and KD ratio to KRAS; details: ratio of KD for HRAS wild-type protein to KD for KRAS
Sequence of HRAS wild-type protein (P01112 whole entry): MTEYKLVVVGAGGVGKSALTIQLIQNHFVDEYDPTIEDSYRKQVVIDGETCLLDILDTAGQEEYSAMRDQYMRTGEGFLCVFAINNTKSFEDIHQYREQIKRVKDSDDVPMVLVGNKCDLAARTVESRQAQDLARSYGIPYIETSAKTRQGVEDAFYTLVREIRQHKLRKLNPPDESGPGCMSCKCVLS
Summary of the method: as §1

[3] = test system: human lung cancer strain NCI-H441; experiment: NCI-H441 cell proliferation inhibitory activity (CellTiter-Glo, 4 days); type: cell-based; details: NCI-H441 cells, 4 days, read-out: NCl-H441 IC50
Summary of the method: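 Step one: dispense the test compound in serial DMSO dilutions. Step three: add the reagent and measure […].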

Sequence of GDP-bound KRAS wild-type protein (P01116 1-188 isoform P01116-2): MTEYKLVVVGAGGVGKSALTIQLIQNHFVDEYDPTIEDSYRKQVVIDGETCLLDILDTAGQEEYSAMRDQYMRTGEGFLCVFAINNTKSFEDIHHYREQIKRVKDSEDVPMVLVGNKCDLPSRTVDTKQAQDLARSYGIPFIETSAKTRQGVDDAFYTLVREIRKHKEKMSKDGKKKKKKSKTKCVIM

Row | SMILES | Kd [1] | IC50 [3] | NRAS /KRAS [2] | HRAS /KRAS (HRAS wild-type protein)
1 | CCC[C@H]1C(=O)N[C@@H](CC(C)C)C(=O)N(C2CC2)CC(=O)N(C)[C@H]2C/C=C\CCN(C2=O)[C@@H](Cc2ccc(C)cc2)C(=O)N(C)CC(=O)N[C@@H](CCc2cc(F)c(C(F)(F)F)c(F)c2)C(=O)N2C[C@H](OCC)C[C@H]2C(=O)NC2(CCC2)C(=O)N(C)[C@@H](C2CCCC2)C(=O)N(C)[C@H](C(=O)N(C)C)CC(=O)N1C [PP2532] | 4.1 nM | 144 nM | A (a compound having 10 or more and less than 20 is denoted as A) | B (a compound having 3 or more and less than 10 is denoted as B)
2 | CCC(CC)[C@H]1C(=O)N(C)[C@H](C(=O)N(C)C)CC(=O)N(C)[C@@H](COC)C(=O)N[C@@H]([C@@H](C)CC)C(=O)N(C)CC(=O)N(C)[C@H]2C/C=C\CCN(C2=O)[C@@H](Cc2ccc(C(F)(F)F)cc2)C(=O)N(C)CC(=O)N[C@@H](CCc2ccc(Cl)c(Cl)c2)C(=O)N2C[C@H](OC(C)C)C[C@H]2C(=O)NC2(CC(C)(C)C2)C(=O)N1C [PP2533] | 0.49 nM | 20 nM | AA (a compound having 20 or more is denoted as AA) | A (a compound having 10 or more and less than 20 is denoted as A)
3 | CCC[C@H]1C(=O)N[C@@H](CC(C)C)C(=O)N(C2CC2)CC(=O)N(C)[C@H]2C/C=C\CCN(C2=O)[C@@H](Cc2ccc(C)cc2)C(=O)N(C)CC(=O)N[C@@H](CCc2ccc(C(F)(F)F)c(OC)c2)C(=O)N2C[C@H](OCC)C[C@H]2C(=O)NC2(CCC2)C(=O)N(C)[C@@H](C2CCCC2)C(=O)N(C)[C@H](C(=O)N(C)C)CC(=O)N1C [PP2534] | 4.1 nM | 195 nM | A (a compound having 10 or more and less than 20 is denoted as A) | B (a compound having 3 or more and less than 10 is denoted as B)
4 | CCC[C@H]1C(=O)N[C@@H]([C@@H](C)CC)C(=O)N(C)CC(=O)N(C)[C@H]2C/C=C\CCN(C2=O)[C@@H](Cc2ccc(C)cc2)C(=O)N(C)CC(=O)N[C@@H](CCc2ccc(Cl)c(Cl)c2)C(=O)N2C[C@H](OC(C)C)C[C@H]2C(=O)NC2(CC(C)(C)C2)C(=O)N(C)[C@@H](C(CC)CC)C(=O)N(C)[C@H](C(=O)N(C)C)CC(=O)N1C [PP2537] | 0.74 nM | 75.1 nM | AA (a compound having 20 or more is denoted as AA) | A (a compound having 10 or more and less than 20 is denoted as A)

Continued, in another order:

Row | Kd [1] | IC50 [3] | SMILES | NRAS /KRAS [2] | HRAS /KRAS (HRAS wild-type protein)
5 | 4.6 nM | 207 nM | CCC[C@H]1C(=O)N[C@@H](CC(C)C)C(=O)N(CC)CC(=O)N(C)[C@H]2C/C=C\CCN(C2=O)[C@@H](Cc2ccc(C)cc2)C(=O)N(C)CC(=O)N[C@@H](CCc2ccc(C(F)(F)F)c(Cl)c2)C(=O)N2C[C@H](OCC)C[C@H]2C(=O)NC2(CC(C)(C)C2)C(=O)N(C)[C@@H](C2CCCC2)C(=O)N(C)[C@H](C(=O)N(C)C)CC(=O)N1C [PP2528] | A (a compound having 10 or more and less than 20 is denoted as A) | B (a compound having 3 or more and less than 10 is denoted as B)
6 | 0.77 nM | 64 nM | CCC[C@H]1C(=O)N[C@@H]([C@@H](C)CC)C(=O)N(C2CC2)CC(=O)N(C)[C@H]2C/C=C\CCN(C2=O)[C@@H](Cc2ccc(C(F)F)cc2)C(=O)N(C)CC(=O)N[C@@H](CCc2cc(F)c(C(F)(F)F)c(F)c2)C(=O)N2C[C@H](OC(C)C)C[C@H]2C(=O)NC2(CC(C)(C)C2)C(=O)N(C)[C@@H](C(CC)CC)C(=O)N(C)[C@H](C(=O)N(C)C)CC(=O)N1C [PP2529] | AA (a compound having 20 or more is denoted as AA) | A (a compound having 10 or more and less than 20 is denoted as A)
7 | 0.54 nM | 26.8 nM | CCC[C@H]1C(=O)N[C@@H]([C@@H](C)CC)C(=O)N(C)CC(=O)N(C)[C@H]2C/C=C\CCN(C2=O)[C@@H](Cc2ccc(C(F)F)cc2)C(=O)N(C)CC(=O)N[C@@H](CCc2ccc(Cl)c(Cl)c2)C(=O)N2C[C@H](OC(C)C)C[C@H]2C(=O)NC2(CC(C)(C)C2)C(=O)N(C)[C@@H](C(CC)CC)C(=O)N(C)[C@H](C(=O)N(C)C)CC(=O)N1C [PP2535] | AA (a compound having 20 or more is denoted as AA) | A (a compound having 10 or more and less than 20 is denoted as A)
